Several values for one entry are separate records, joined by “and”; a condition that tells them apart may be missing. Equal values may be shown once.
Tests used:
PIK3CA (human) [1] = target: PIK3CA (human) (UniProt P42336); assay: Enzyme Assay
PIK3CB (Human) [2] = target: PIK3CB (Human) (UniProt P42338); assay: Enzyme Assay
[3] = target: PIK3CA (human), P42336 [I800L]; assay: Enzyme Assay
PIK3CD (Human) [4] = target: PIK3CD (Human) (UniProt O00329); assay: Enzyme Assay
PIK3CG (human) = PIK3CG (human) (UniProt P48736); assay: Enzyme Assay
Chain of PIK3CG (human) (P48736 whole entry, looked up): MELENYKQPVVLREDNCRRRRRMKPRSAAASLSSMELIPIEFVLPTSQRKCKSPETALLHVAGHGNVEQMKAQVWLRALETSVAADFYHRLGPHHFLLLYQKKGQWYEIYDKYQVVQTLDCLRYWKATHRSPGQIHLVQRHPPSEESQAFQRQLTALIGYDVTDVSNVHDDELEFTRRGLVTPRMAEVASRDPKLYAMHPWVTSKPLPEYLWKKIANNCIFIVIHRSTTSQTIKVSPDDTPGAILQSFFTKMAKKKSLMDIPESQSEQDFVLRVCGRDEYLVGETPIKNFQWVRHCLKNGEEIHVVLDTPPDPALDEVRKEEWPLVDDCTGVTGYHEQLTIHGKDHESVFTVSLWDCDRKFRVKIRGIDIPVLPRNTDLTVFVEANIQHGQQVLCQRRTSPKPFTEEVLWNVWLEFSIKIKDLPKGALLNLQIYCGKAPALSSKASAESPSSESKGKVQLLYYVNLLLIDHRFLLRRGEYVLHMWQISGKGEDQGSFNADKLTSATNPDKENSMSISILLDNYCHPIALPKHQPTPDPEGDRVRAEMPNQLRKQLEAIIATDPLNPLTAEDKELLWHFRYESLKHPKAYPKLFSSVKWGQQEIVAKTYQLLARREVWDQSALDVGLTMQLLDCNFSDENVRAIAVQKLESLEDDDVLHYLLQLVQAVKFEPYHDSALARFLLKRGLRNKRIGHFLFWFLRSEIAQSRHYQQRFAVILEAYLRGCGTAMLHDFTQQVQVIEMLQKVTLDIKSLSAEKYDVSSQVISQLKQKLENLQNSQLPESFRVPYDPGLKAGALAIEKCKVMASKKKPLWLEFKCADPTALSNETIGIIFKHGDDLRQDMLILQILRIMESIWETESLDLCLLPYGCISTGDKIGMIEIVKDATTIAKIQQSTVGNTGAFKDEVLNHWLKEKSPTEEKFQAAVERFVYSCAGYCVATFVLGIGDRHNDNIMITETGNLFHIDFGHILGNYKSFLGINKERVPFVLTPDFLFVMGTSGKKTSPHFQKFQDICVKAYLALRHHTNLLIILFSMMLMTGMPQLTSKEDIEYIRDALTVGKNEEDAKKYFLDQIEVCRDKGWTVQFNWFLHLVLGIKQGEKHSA

PIK3CA (human) [5] = target: PIK3CA (human) (UniProt P42336); assay: Cell-Based Assay; conditions: jurkat
PIK3CB (Human) [6] = target: PIK3CB (Human) (UniProt P42338); assay: Cell-Based Assay; conditions: jurkat
PIK3CD (Human) [7] = target: PIK3CD (Human) (UniProt O00329); assay: Cell-Based Assay; conditions: jurkat
PIK3CB (Human) [8] = target: PIK3CB (Human) (UniProt P42338); assay: Cell-Based Assay; conditions: jurkat; remark: listed apart in the source

Chain of PIK3CB (Human) (P42338 whole entry, looked up): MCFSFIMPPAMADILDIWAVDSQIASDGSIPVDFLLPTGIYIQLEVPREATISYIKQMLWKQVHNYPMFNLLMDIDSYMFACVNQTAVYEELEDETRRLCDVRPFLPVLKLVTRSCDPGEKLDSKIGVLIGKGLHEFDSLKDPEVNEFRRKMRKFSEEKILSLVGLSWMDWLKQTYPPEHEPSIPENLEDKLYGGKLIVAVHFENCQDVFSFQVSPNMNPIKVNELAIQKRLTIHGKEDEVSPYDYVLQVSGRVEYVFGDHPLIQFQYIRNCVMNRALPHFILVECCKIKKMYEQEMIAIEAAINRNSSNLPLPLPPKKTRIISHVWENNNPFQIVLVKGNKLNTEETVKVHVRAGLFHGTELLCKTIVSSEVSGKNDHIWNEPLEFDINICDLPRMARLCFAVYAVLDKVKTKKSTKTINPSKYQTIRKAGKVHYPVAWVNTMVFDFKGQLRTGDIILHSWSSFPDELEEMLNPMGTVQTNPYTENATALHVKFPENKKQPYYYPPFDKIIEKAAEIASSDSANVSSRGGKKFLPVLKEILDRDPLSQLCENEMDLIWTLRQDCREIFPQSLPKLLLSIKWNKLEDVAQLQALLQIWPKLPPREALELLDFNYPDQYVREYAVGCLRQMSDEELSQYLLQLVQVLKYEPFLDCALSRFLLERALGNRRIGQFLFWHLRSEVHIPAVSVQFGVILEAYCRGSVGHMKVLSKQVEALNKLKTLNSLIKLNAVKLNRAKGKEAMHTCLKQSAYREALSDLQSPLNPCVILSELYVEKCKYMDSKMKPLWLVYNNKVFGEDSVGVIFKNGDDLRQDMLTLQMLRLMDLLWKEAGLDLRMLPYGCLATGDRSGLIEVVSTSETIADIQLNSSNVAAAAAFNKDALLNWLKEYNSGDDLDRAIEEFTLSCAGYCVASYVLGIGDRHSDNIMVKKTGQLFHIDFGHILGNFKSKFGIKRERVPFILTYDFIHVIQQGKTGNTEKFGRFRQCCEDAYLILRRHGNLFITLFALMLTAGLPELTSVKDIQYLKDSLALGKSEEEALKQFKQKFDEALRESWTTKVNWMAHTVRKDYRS
Chain of PIK3CD (Human) (O00329 whole entry, looked up): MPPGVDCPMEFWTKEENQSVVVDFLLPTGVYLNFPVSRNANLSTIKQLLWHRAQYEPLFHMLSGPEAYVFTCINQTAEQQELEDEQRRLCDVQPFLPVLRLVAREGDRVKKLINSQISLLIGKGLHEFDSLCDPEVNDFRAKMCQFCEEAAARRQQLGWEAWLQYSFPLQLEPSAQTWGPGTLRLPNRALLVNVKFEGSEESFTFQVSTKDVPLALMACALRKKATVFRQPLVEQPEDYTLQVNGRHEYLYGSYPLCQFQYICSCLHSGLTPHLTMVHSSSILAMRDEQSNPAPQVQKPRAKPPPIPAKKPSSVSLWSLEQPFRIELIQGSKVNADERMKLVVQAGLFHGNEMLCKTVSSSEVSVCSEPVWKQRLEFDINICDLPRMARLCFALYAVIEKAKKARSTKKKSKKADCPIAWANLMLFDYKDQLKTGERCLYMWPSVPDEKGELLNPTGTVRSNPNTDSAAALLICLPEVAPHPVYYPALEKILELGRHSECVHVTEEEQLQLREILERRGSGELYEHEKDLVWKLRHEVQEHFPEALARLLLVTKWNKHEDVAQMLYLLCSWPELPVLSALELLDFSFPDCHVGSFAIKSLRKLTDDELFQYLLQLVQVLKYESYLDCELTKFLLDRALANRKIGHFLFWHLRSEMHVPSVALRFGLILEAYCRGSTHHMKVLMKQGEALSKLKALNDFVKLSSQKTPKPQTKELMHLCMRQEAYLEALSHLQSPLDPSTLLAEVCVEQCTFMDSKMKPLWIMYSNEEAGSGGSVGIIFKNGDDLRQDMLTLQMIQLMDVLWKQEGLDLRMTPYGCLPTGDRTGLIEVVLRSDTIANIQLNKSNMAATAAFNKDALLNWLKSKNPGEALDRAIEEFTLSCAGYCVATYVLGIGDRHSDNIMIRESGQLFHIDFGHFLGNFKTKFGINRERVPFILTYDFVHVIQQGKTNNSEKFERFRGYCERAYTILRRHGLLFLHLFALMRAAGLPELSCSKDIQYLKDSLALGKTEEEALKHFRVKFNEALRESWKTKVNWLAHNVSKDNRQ
Chain of PIK3CA (human) (P42336 whole entry, looked up): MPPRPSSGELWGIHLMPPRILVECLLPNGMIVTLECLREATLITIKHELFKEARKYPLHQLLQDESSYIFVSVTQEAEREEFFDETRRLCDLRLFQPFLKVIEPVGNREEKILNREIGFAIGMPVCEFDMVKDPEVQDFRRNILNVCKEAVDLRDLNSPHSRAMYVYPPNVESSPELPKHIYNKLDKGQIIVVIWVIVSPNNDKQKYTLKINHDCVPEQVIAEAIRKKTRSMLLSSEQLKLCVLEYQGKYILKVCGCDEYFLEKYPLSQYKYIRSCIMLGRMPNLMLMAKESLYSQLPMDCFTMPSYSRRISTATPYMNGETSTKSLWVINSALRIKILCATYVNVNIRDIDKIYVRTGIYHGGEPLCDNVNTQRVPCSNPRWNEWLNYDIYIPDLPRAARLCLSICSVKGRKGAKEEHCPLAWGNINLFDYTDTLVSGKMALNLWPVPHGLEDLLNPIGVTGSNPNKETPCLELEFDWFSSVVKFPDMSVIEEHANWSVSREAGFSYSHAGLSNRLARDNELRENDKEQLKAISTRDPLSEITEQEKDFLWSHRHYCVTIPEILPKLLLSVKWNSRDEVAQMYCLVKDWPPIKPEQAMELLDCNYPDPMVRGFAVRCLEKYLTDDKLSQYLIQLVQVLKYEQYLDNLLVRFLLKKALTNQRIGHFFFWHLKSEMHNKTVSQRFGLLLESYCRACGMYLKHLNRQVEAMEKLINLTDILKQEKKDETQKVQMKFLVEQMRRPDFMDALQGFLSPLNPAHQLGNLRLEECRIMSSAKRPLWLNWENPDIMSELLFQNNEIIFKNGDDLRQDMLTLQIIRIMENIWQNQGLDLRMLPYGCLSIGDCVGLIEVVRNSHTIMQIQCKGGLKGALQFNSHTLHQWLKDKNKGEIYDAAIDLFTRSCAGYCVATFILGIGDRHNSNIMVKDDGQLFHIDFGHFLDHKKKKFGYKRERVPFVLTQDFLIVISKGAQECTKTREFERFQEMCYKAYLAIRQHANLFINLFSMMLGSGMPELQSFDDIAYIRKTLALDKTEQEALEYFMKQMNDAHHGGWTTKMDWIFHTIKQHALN
Chain of PIK3CA (human), P42336 [I800L] (P42336 whole entry I800L, looked up): as the sequence (P42336 whole entry, looked up) above, with I800L counted along it

IC50 (PIK3CA (human) [1]): 0.886 µM | Kd (PIK3CA (human) [1]): 0.14 µM | IC50 (PIK3CB (Human) [2]): > 12 µM | Kd [3]: 0.19 µM | IC50 (PIK3CD (Human) [4]): 1.29 µM | IC50 (PIK3CG (human)): 1.87 µM | IC50 (PIK3CA (human) [5]): 1.2 µM | IC50 (PIK3CB (Human) [6]): 10 µM | IC50 (PIK3CD (Human) [7]): 3.3 µM and 0.98 µM | IC50 (PIK3CB (Human) [8]): 9.2 µM
Compound: COC(=O)Nc1ccc(-c2nc(N3CCOCC3)c3cnn(C4CCN(C(=O)OC)CC4)c3n2)cc1

— the Kinase Knowledgebase extract (Sharma et al. 2016)
